Converted amounts (≈) assume the structure as drawn.
Tests used:
Anas platyrhynchos = conditions: acute; oral; unspecified; mortality
Apis mellifera = conditions: acute; duration: 48 hours; dermal; mortality
Bibionidae = conditions: chronic/long-term; duration: 28 days
Canidae = conditions: chronic; duration: 1 years; oral; Dog Other; food consumption
Daphnia magna = conditions: chronic/long-term; duration: 21 days; behavior
Folsomia candida = conditions: acute; duration: 14 days; mortality
Oncorhynchus mykiss = conditions: chronic/long-term; duration: 63 days
Perca sp. = conditions: acute; duration: 96 hours; mortality
Tagia sp. = conditions: acute; duration: 14 days; mortality
Adalia sp. = test: LR50; higher = less toxic; conditions: not reported; mortality
Typhlodromus pyri = test: LR50; higher = less toxic; conditions: not reported; mortality
[1] = reproduction developmental, reproduction

CC(C)(C)c1ccc(CCOc2ncnc3ccccc23)cc1 [Fenazaquin]
LD50 (Anas platyrhynchos): > 2000 mg/kg
LD50 (Apis mellifera): 1.21 µg/piece
NOEC (Bibionidae): 0.0188 mg/kg
NOAEL (Canidae): 5 mg/kg-day
LC50 (Colinus virginianus; acute, oral, diet, mortality): > 1170 mg/kg-day
LD50 (Colinus virginianus; acute, oral, mortality): 1750 mg/kg
NOEC (Colinus virginianus; [1]): 80.3 mg/kg-day
NOEC (Daphnia magna): 0.0014 mg/L
LC50 (Folsomia candida): > 1000 mg/kg
NOEC (Oncorhynchus mykiss): 0.00096 mg/L
LC50 (Perca sp.): 3.2 ng/mL (≈ 0.0104 µM)
LD50 (Rattus norvegicus; acute, oral, M, mortality): 134 mg/kg
NOAEL (Rattus norvegicus; chronic, duration: 2 years, oral, histopathology: nonneoplastic): 0.46 mg/kg-day
NOAEL (Rattus norvegicus; reproduction developmental, food consumption): 10 mg/kg-day
NOEL (Rattus norvegicus; [1]): 25 mg/kg-day
LC50 (Tagia sp.): 26.5 mg/kg
LR50 (Adalia sp.): < 21.9 g/ha
LR50 (Typhlodromus pyri): < 2 g/ha

— EPA's ToxValDB 9.5 (doi:10.2903/j.efsa.2010.1892)
